Experimental data taken from EP4635490A1, “PM20D1-DERIVED N-OLEOYL-L-LEUCINE FOR THE TREATMENT AND PREVENTION OF NEURODEGENERATIVE DISEASES” (Consejo Superior De Investigaciones Científicas, priority 2024, dated 2025).

Columns and labels:
[1] = tested on: APP/PS1-derived primary microglia; assay: Aβ clearance by primary microglia, Amyloid beta 40 ELISA; type: cell-based, mice; details: 200nM C18:1-Leu, 24h in presence of Aβ; n=5, p=0.0201
Description: (§1) • Fig. 1. C18:1-Leu treatment in neuronal cultures. a, Enzyme-linked immunosorbent assays (ELISA) of APP/PS1-derived hippocampal neuronal cultures treated during 24h with 200nM C18:1-Leu. n=5 per group, p=0.0093; one-sided Student's t-test. b, Lactate dehydrogenase (LDH) release viability assay of APP/PS1-derived hippocampal neuronal cultures treated during 16h with 150µM H2O2 and 200nM C18:1-Leu. ROS, reactive oxygen species. n=10 per group, p=0.0048; one-sided Student's t-test. b, AlamarBlue cell viability assay of SH-SY5Y cells treated during 24h with 10µM thapsigargin and 200nM C18:1 -Leu. UPS, unfolded-protein stress. n=5 per group, p=0.0084; one-sided Student's t-test. Single values (experiments) are represented by dots. *p<0.05, and **p<0.01. • Fig. 2. […] AD pathologies and phenotypes in APP/PS1 mice. a, Methoxy-X04 (MX04) IHC amyloid burden (area) quantification. n=8 per group, p=0.0283; one-sided Student's t-test. b, Novel object recognition (NOR) performance of vehicle and C18:1-Leu treated APP/PS1 mice. […]

[2] = tested on: APP/PS1-derived hippocampal neuronal cultures; assay: LDH release viability assay under H2O2 (ROS) stress; type: cell-based, mice; details: 200nM C18:1-Leu, 16h with 150µM H2O2 (Fig. 1b legend); n=10, p=0.0048
Description: as §1

[3] = tested on: APP/PS1 mice; assay: Novel object recognition test in APP/PS1 mice; type: in vivo; details: 25 mg/kg/day p.o. during three months, starting at 15 months-of-age; n=11-15, p=0.0312
Description: as §1

[4] = tested on: APP/PS1-derived hippocampal neuronal cultures; assay: ELISA of Aβ production in primary hippocampal neuronal cultures; type: cell-based, mice; details: 200nM C18:1-Leu, 24h vs vehicle; n=5, p=0.0093
Description: as §1

[5] = tested on: GMC101 worms; assay: Mobility phenotyping of GMC101 worms (AD model); type: in vivo, C. elegans; details: 200 µM C18:1-Leu, first 3 days of adulthood, vs vehicle
Description: as §1

[6] = tested on: SH-SY5Y cells; assay: AlamarBlue cell viability assay under thapsigargin (unfolded-protein stress); type: cell-based, human; details: 200nM C18:1-Leu, 24h with 10µM thapsigargin; n=5, p=0.0084
Description: as §1

[7] = tested on: GMC101 worms; assay: Amyloid aggregation in GMC101 worms (western blot); type: in vivo, C. elegans; details: 200 µM C18:1-Leu, GMC101 worms at day 1, vs vehicle; p=0.0108
Description: as §1

[8] = tested on: APP/PS1 mice; assay: Immunohistochemistry of brain sections of treated APP/PS1 mice (amyloid plaques, microglia, neuronal damage); type: in vivo
Description: • Fig. 1. C18:1-Leu treatment in neuronal cultures. a, Enzyme-linked immunosorbent assays (ELISA) of APP/PS1-derived hippocampal neuronal cultures treated during 24h with 200nM C18:1-Leu. n=5 per group, p=0.0093; one-sided Student's t-test. b, Lactate dehydrogenase (LDH) release viability assay of APP/PS1-derived hippocampal neuronal cultures treated during 16h with 150µM H2O2 and 200nM C18:1-Leu. ROS, reactive oxygen species. n=10 per group, p=0.0048; one-sided Student's t-test. b, AlamarBlue cell viability assay of SH-SY5Y cells treated during 24h with 10µM thapsigargin and 200nM C18:1 -Leu. UPS, unfolded-protein stress. n=5 per group, p=0.0084; one-sided Student's t-test. Single values (experiments) are represented by dots. *p<0.05, and **p<0.01. • Fig. 2. AD pathologies and phenotypes in GMC101 worms. a, Mobility assessment in vehicle and C18:1-Leu treated GMC101 worms during the 3 first days of adulthood. a.u., arbitrary units. n=75-100 worms per time, p=0.0001 and p=0.0152 for day 2 and 3, respectively; one-sided Student's t-test. b, Pumping per minute in vehicle and C18:1-Leu treated GMC101 worms at day 3. n=7 per group, p=0.0162; one-sided t-test. c, Relative amyloid aggregation in vehicle and C18:1-Leu treated GMC101 worms at day 1. n=6 experiments of -1000 worms each, pval=0.0108; one-sided Student's t-test. Single values (animals) are represented by dots. *p<0.05, and ***p<0.001. • Fig. 3. AD pathologies and phenotypes in APP/PS1 mice. a, Methoxy-X04 (MX04) IHC amyloid burden (area) quantification. n=8 per group, p=0.0283; one-sided Student's t-test. b, Novel object recognition (NOR) performance of vehicle and C18:1-Leu treated APP/PS1 mice. C18:1-Leu was provided from 15 to 18 months (m) of age. n=11-15 per group, p=0.0312. Single values (animals) are represented by dots. *p<0.05, **p<0.01, and ***p<0.001. • Fig. 4. Microglia analysis in C18:1-Leu treated APP/PS1 mice. a, Quantification of Ionized calcium-binding adaptor molecule 1 (IBA1, microglia) area within methoxy-X04 (MX04, amyloid plaques) region of interest (ROI). n=6-7 per group, p=0.0051; one-sided Student's t-test. b, Amyloid plaque number quantification. n=8 per group, p=0.0444; one-sided Student's t-test. c, Percentage of amyloid halo (diffuse, toxic) area over plaque dense core. n=8 per group, p=0.0389; one-sided Student's t-test. d, Percentage of the Lysosome-associated protein 1 (LAMP1, neuronal damage) area over to plaque dense core. n=8-9 per group, p=0.0132; one-sided Student's t-test. Single values (animals) are represented by dots. *p<0.05, and **p<0.01. • Fig. 5. C18:1-Leu treatment in microglia cultures. a, Transwell assay of APP/PS1-derived primary microglia treated during 24h with 200nM C18:1-Leu. n=6 per group, p=0.0007; one-sided Student's t-test. b, Amyloid-beta 40 (Aβ40) ELISA assays of APP/PS1-derived primary microglia cultures after 24h of 200nM C18:1-Leu treatment in presence of amyloid-beta (Aβ). n=5 per group, p=0.0201; one-sided Student's t-test. Single values (experiments) are represented by dots. *p<0.05, **p<0.01, and ***p<0.001. • Fig. 6. RNA expression signatures in human samples I. C18:1-Leu score according to PM20D1 haplotype in Alzheimer's disease (AD) and control postmortem brain samples. a, n=387 control and n=511 AD samples, Wilcoxon test, ****p<0.0001 • Fig. 7. RNA expression signatures in human samples II. Correlation between PIG and C18:1-Leu scores in AD samples. n=511 AD samples, Spearman correlation. • Fig. 8. […]

[9] = tested on: APP/PS1-derived primary microglia; assay: Transwell migration assay (Aβ chemotaxis) of primary microglia; type: cell-based, mice; details: 200nM C18:1-Leu, 24h, conditioned Aβ media in lower chamber; n=6, p=0.0007
Description: as §1

CCCCCCCC/C=C\CCCCCCCC(=O)N[C@@H](CC(C)C)C(=O)O [C18:1-Leu, N-oleoyl-L-Leucine]
Aβ clearance (remaining Aβ40 in media) [1]: increases Aβ clearance
neuroprotection against ROS (cell viability, LDH release) [2]: increases neuroprotection against ROS
cognitive deficits (novel object recognition test) [3]: improves
Aβ production [4]: reduces Aβ production in neuronal cells
AD-like phenotypes - spontaneous and induced mobility [5]: significantly improves
neuroprotection against UPS stress (cell viability, AlamarBlue) [6]: increases neuroprotection
amyloid pathologies (relative amyloid aggregation) [7]: significantly improves
amyloid burden (Methoxy-X04 IHC area) ([8]; 25 mg/kg/day p.o. during three months, starting at 15 months-of-age, n=8, p=0.0283): improves amyloid burden
microglia association with amyloid plaques (relative MX04 area occupied by IBA1) ([8]; C18:1-Leu treated APP/PS1 mice vs vehicle, n=6-7, p=0.0051): increased microglia association
relative size of the diffuse halo of the plaques ([8]; C18:1-Leu treated APP/PS1 mice vs vehicle, n=8, p=0.0389): reduced
number of amyloid plaques ([8]; C18:1-Leu treated APP/PS1 mice vs vehicle, n=8, p=0.0444): reduced
LAMP1 area (neuronal damage) over plaque dense core ([8]; C18:1-Leu treated APP/PS1 mice vs vehicle, n=8-9, p=0.0132): stronger LAMP1 area reduction
Aβ chemotaxis (migrated microglia) [9]: increased Aβ chemotaxis
